{"source": "paper PMC8166143", "about": "“Ecotoxicity evaluation of polymeric nanoparticles loaded with ascorbic acid for fish nutrition in aquaculture” (Journal of Nanobiotechnology, 2021)", "key": {"AChE": {"tested_on": "AChE", "details": "ref Sandahl et al. [76], cited from earlier work"}, "[1]": {"tested_on": "zebrafish embryos and larvae", "details": "after 96 h of exposure", "procedure": "The embryos were kept individually in 24-well polystyrene plates (n = 24 organisms per group), with addition of 2 mL of test solution to each well. The temperature was maintained at 26 ± 0.2 °C and a light/dark photoperiod of 14/10 h was provided. Determinations were made of mortality and morphological abnormalities including changes in heartbeat, presence of coagulation, undetected tail, change in head formation, disintegration of larvae, pericardial edema, yolk sac edema and opacity, and defective development of the somite.\nThe total length of the larvae (mm) was measured from the mouth to the terminal portion of the tail.\nMortality was defined as the presence of coagulation, lack of heartbeat, failure of somite development, and undeveloped tail. The hatching rate was calculated considering the successful hatching of embryos in relation to the total number of embryos in each replicate. The observed malformations included pericardial edema, tail deformity, yolk sac edema, and spinal curvature.\nThe malformation rate was determined considering the percentage of malformed larvae in relation to the total number of larvae that hatched during the test. […] The equipment was previously calibrated using a millimeter scale."}, "[2]": {"assay": "Toxicity evaluation using zebrafish (mortality, LC values, hatching, morphology; 3.12-400 mg/L, 96 h)", "details": "zebrafish (Danio rerio), in vivo", "method": "(§1) Preliminary tests were performed to determine the lethal concentration (LC50, mg/L). For this experiment, 24-well polystyrene plates were used, with the embryos being individually exposed to 2 mL of the test solution (n = 24 per group). […] The positive control was 4 mg L^−1 of 3,5-dichloroaniline (≥ 98%, Sigma-Aldrich). The plates were examined every 24 h to determine the mortality of the embryos and larvae, using a stereomicroscope (Model SMZ 2 LED, Optika) and Optika View v. 7.1.1.5 software. […] 1.17.04 software."}, "[3]": {"tested_on": "zebrafish embryos and larvae", "assay": "Toxicity evaluation using zebrafish (mortality, LC values, hatching, morphology; 3.12-400 mg/L, 96 h)", "method": "as §1"}, "[4]": {"assay": "AA oxidation under aquarium conditions", "format": "physicochemical", "method": "(§2) The oxidation profiles of AA, alone and encapsulated in the CS and PCL nanoparticles, were evaluated using the method described previously. A stock solution of AA was prepared by dissolving 50 mg of AA in 250 mL of stabilizing solution (EDTA). The absorbance of this solution was measured at 265 nm, with the stabilizing solution used as the background. Separately, a solution of Oxone (potassium peroxymonosulfate, Sigma-Aldrich) was prepared in 50 mL of EDTA solution. An aliquot of AA solution was mixed with 3 mL of Oxone solution and completed to 25 mL with the stabilizing solution, resulting in a solution with 10 μg mL^−1 of AA. The same procedure was performed for the CS and PCL nanoparticles loaded with AA. The absorbance value of the solution containing only AA, minus the absorbance value of the solution containing AA and Oxone, was proportional to the concentration of AA present in the sample. For oxidation studies under aquarium conditions, 9 aquaria were used (3 per treatment), each containing a final volume of 3 L and fitted with an aeration pump. The parameters set for the experiment were 28 °C, pH 7 ± 0.5, and 25 µg mL^−1 of AA (the concentration used in the in vivo assays). At predetermined times, 1 mL aliquots were collected, and the amount of AA was determined using HPLC. The results were presented as % viable ascorbic acid. The assays were performed in triplicate (n = 3)."}, "[5]": {"assay": "AA release kinetics, two-compartment system, and mathematical modeling", "format": "physicochemical", "method": "The profiles of AA release from the nanoparticles were evaluated using a two-compartment system composed of a donor compartment (2 mL) and an acceptor compartment (50 mL), separated by a cellulose membrane (1000 Da exclusion pore size) under slight stirring and room temperature (25 °C). Aliquots (1 mL) were periodically collected from the acceptor compartment, with the volume being replaced with 1 mL of water to maintain a constant volume. The aliquots removed were analyzed by HPLC and the results were converted to percentages of released AA. The assays were performed in triplicate. Zero order, first order, Higuchi and Korsmeyer-Peppas mathematical models were used to elucidate the release mechanism of AA from all formulations."}, "[6]": {"assay": "AA oxidation kinetics induced by peroxymonosulfate (Oxone)", "format": "physicochemical", "method": "as §2"}, "zebrafish larvae": {"tested_on": "zebrafish larvae", "assay": "Zebrafish motor activity (distance traveled, speed)", "format": "in vivo, Danio rerio", "method": "After 96 h, the larvae were distributed individually in 96-well plates, with each well containing 100 µL of embryo medium and 100 µL of test solution (total volume = 200 µL). The behaviors of the larvae were recorded individually for 10 min (at 28 °C) and were analyzed using EthovisionXT software (Noldus). The parameters considered were speed (mm/s) and distance covered."}}, "data": [{"compound": "CCOP(=S)(OCC)Oc1nc(Cl)c(Cl)cc1Cl", "note": "[chlorpyrifos]", "values": [{"measurement": "relative AChE activity compared to the control", "setting": "AChE; at 0.6 µg L^−1", "result": 77.2, "unit": "%"}, {"measurement": "exposure concentration with significant decreases in swimming activity", "setting": "AChE", "result": 0.6, "unit": "µg/L"}]}, {"compound": "O=C1O[C@H]([C@@H](O)CO)C(O)=C1O", "note": "[AA, L-ascorbic acid]", "values": [{"measurement": "hatching rate", "setting": "[1]; LC50 concentration", "result": 16.6, "unit": "%"}, {"measurement": "malformations of embryos and larvae", "setting": "[1]; LC50 dose", "result": "edema and opacity of the yolk sac, edema of the pericardium, malformation of the tail, and bent spine"}, {"measurement": "LC50 at 96 h", "setting": "[2]", "result": 331, "unit": "µg/mL"}, {"measurement": "mortality", "setting": "[3]; 400 mg/L, 96 h", "result": 75, "unit": "%"}, {"measurement": "malformations compared to NPs_CS_AA at the same concentrations", "setting": "[3]; 25 and 50 mg L^−1", "result": "higher numbers of malformations"}, {"measurement": "hatching rate compared to the control group", "setting": "[3]; 100 and 200 mg L^−1, after 96 h", "result": "more pronounced decreases in hatching"}, {"measurement": "LC10", "setting": "[3]; 96 h, probit analysis", "result": 53.0, "unit": "µg/mL"}, {"measurement": "LC20", "setting": "[3]; 96 h, probit analysis", "result": 148.3, "unit": "µg/mL"}, {"measurement": "LC30", "setting": "[3]; 96 h, probit analysis", "result": 217.1, "unit": "µg/mL"}, {"measurement": "LC40", "setting": "[3]; 96 h, probit analysis", "result": 275.8, "unit": "µg/mL"}, {"measurement": "hatching rate compared to the control group", "setting": "[3]; after 48 h of exposure", "result": "lower"}, {"measurement": "mortality", "setting": "[3]; all concentrations tested except 400 mg L^−1, 96 h", "result": "below 30%"}, {"measurement": "time to total degradation of AA", "setting": "[4]", "result": 120, "unit": "min"}, {"measurement": "AA degraded", "setting": "[4]; first 60 min", "result": "almost half"}, {"measurement": "AA released (acceptor compartment)", "setting": "[5]; after 60 min, 25 °C, water", "result": "39 ± 0.2", "unit": "%"}, {"measurement": "AA released (acceptor compartment)", "setting": "[5]; after 210 min", "result": "51 ± 0.9", "unit": "%"}, {"measurement": "AA concentration after addition of the oxidizing agent", "setting": "[6]; first minute, initial 10 μg mL^−1 AA, peroxymonosulfate", "result": "2.5 ± 0.01", "unit": "µg/mL"}, {"measurement": "time to total degradation of AA", "setting": "[6]; peroxymonosulfate oxidizing agent", "result": 7, "unit": "min"}, {"measurement": "distance traveled, dose dependence", "setting": "zebrafish larvae; LC10-LC50, 96 h exposure", "result": "dose-dependent increase in the distance traveled"}, {"measurement": "swimming speed, dose dependence", "setting": "zebrafish larvae; LC10-LC50, 96 h exposure", "result": "dose-dependent increases in speed"}, {"measurement": "distance traveled compared to the control group", "setting": "zebrafish larvae; LC50, 96 h exposure", "result": "significant (p < 0.05) increase in the distance traveled"}, {"measurement": "distance traveled compared to the control group", "setting": "zebrafish larvae; up to the LC30 concentration", "result": "shorter"}]}]}
